# Assay results from ChEMBL document CHEMBL5126512, “Current status of carbazole hybrids as anticancer agents” (Eur J Med Chem, 2022).
# Legend:
# A549 [1] = assay: Antiproliferative activity against human A549 cells assessed as cell growth inhibition measured after 72 hrs by MTT assay; format: functional, cell-based; conditions: A549, 72 h
# MDA-MB-231 [2] = assay: Antiproliferative activity against human MDA-MB-231 cells assessed as cell growth inhibition measured after 72 hrs by MTT assay; format: functional, cell-based; conditions: MDA-MB-231, 72 h
# HCT-116 [3] = assay: Antiproliferative activity against human HCT-116 cells assessed as cell growth inhibition measured after 72 hrs by MTT assay; format: functional, cell-based; conditions: HCT-116, 72 h
# HepG2 [4] = assay: Antiproliferative activity against human HepG2 cells assessed as cell growth inhibition by MTT assay; format: functional, cell-based
# SW480 = assay: Antiproliferative activity against human SW480 cells assessed as cell growth inhibition by MTT assay; format: functional, cell-based
# [5] = Antiproliferative activity against human Lu1 cells assessed as cell growth inhibition by MTT assay; format: functional, cell-based
# [6] = Antiproliferative activity against mouse […] cells assessed as cell growth inhibition by MTT assay; format: functional, cell-based
# MCF7 [7] = assay: Antiproliferative activity against human MCF7 cells assessed as cell growth inhibition measured after 48 hrs by SRB assay; format: functional, cell-based; conditions: for IC50: MCF7, 48 h; for GI50: MCF7, time 48 hrs
# HOP-62 = assay: Antiproliferative activity against human HOP-62 cells assessed as cell growth inhibition measured after 48 hrs by SRB assay; format: functional, cell-based; conditions: HOP-62, 48 h
# MDA-MB-231 [8] = assay: Antiproliferative activity against human MDA-MB-231 cells assessed as cell growth inhibition measured after 48 hrs by SRB assay; format: functional, cell-based; conditions: for IC50: MDA-MB-231, 48 h; for GI50: MDA-MB-231, time 48 hrs
# OVCAR-3 = assay: Antiproliferative activity against human OVCAR-3 cells assessed as cell growth inhibition measured after 48 hrs by SRB assay; format: functional, cell-based; conditions: OVCAR-3, 48 h
# Hs-578T = assay: Antiproliferative activity against human Hs-578T cells assessed as cell growth inhibition measured after 48 hrs by SRB assay; format: functional, cell-based
# SNB-75 = assay: Antiproliferative activity against human SNB-75 cells assessed as cell growth inhibition measured after 48 hrs by SRB assay; format: functional, cell-based; conditions: SNB-75, 48 h
# SW-620 = assay: Antiproliferative activity against human SW-620 cells assessed as cell growth inhibition measured after 48 hrs by SRB assay; format: functional, cell-based; conditions: SW-620, 48 h
# UO-31 = assay: Antiproliferative activity against human UO-31 cells assessed as cell growth inhibition measured after 48 hrs by SRB assay; format: functional, cell-based; conditions: UO-31, 48 h
# 786-0 = assay: Antiproliferative activity against human 786-0 cells assessed as cell growth inhibition measured after 48 hrs by SRB assay; format: functional, cell-based; conditions: 786-0, 48 h
# OVCAR-4 = assay: Antiproliferative activity against human OVCAR-4 cells assessed as cell growth inhibition measured after 48 hrs by SRB assay; format: functional, cell-based; conditions: OVCAR-4, 48 h
# HCT-116 [9] = assay: Cytotoxicity against human HCT-116 cells assessed as cell growth inhibition measured after 48 hrs by MTT assay; format: functional, cell-based; conditions: HCT-116, 48 h
# MCF7 [10] = assay: Cytotoxicity against human MCF7 cells assessed as cell growth inhibition measured after 48 hrs by MTT assay; format: functional, cell-based; conditions: MCF7, 48 h
# HepG2 [11] = assay: Cytotoxicity against human HepG2 cells assessed as cell growth inhibition measured after 48 hrs by MTT assay; format: functional, cell-based; conditions: HepG2, 48 h
# [12] = Cytotoxicity against human RPE-1 cells assessed as cell growth inhibition measured after 48 hrs by MTT assay; format: toxicity, cell-based; conditions: RPE-1 (TERT-RPE1) cells
# ASPC1 = assay: Anticancer activity against human ASPC1 cells assessed as cell growth inhibition measured after 72 hrs by Cell-Titre Glo luminescent cell viability assay; format: functional, cell-based; conditions: ASPC1, 72 h
# SW1990 = assay: Anticancer activity against human SW1990 cells assessed as cell growth inhibition measured after 72 hrs by Cell-Titre Glo luminescent cell viability assay; format: functional, cell-based; conditions: SW1990, 72 h
# MCF7 [13] = assay: Antiproliferative activity against human MCF7 cells assessed as cell growth inhibition by MTT assay; format: functional, cell-based
# A549 [14] = assay: Antiproliferative activity against human A549 cells assessed as cell growth inhibition by MTT assay; format: functional, cell-based
# COLO 205 = assay: Antiproliferative activity against human COLO 205 cells assessed as cell growth inhibition by MTT assay; format: functional, cell-based
# HeLa [15] = assay: Antiproliferative activity against human HeLa cells assessed as cell growth inhibition by MTT assay; format: functional, cell-based
# MDA-MB-231 [16] = assay: Antiproliferative activity against human MDA-MB-231 cells assessed as cell growth inhibition by MTT assay; format: functional, cell-based
# [17] = molecular target: Urokinase-type plasminogen activator (Homo sapiens, UniProt P00749); assay: Inhibition of urokinase plasminogen activator in human MCF7 cells measured after 24 hrs by ELISA method; format: cell-based
# [18] = Cytotoxicity against human HFB4 cells assessed as cell growth inhibition measured after 24 hrs by MTT assay; format: toxicity, cell-based
# MCF7 [19] = assay: Anticancer activity against human MCF7 cells assessed as cell growth inhibition measured after 24 hrs by MTT assay; format: functional, cell-based; conditions: MCF7, 24 h
# A549 [20] = assay: Cytotoxicity against human A549 cells assessed as cell growth inhibition measured after 24 hrs by MTT assay; format: functional, cell-based; conditions: A549, 24 h, pooled result: one value given for 4 cell lines, strains, targets or settings
# MCF7 [21] = assay: Cytotoxicity against human MCF7 cells assessed as cell growth inhibition measured after 72 hrs by MTT assay; format: functional, cell-based; conditions: MCF7, 72 h
# MDA-MB-231 [22] = assay: Cytotoxicity against human MDA-MB-231 cells assessed as cell growth inhibition measured after 72 hrs by MTT assay; format: functional, cell-based; conditions: MDA-MB-231, 72 h
# HeLa [23] = assay: Cytotoxicity against human HeLa cells assessed as cell growth inhibition measured after 72 hrs by MTT assay; format: functional, cell-based; conditions: pooled result: one value given for 3 cell lines, strains, targets or settings
# HepG2 [24] = assay: Cytotoxicity against human HepG2 cells assessed as cell growth inhibition measured after 72 hrs by MTT assay; format: functional, cell-based; conditions: HepG2, 72 h
smiles,measurement,setting,value
OC(CN1CCCCC1)Cn1c2ccc(Cl)cc2c2cc(Cl)ccc21 (stereo not drawn),IC50,A549 [1],7.1 µM
same,IC50,MDA-MB-231 [2],7.1 µM
same,IC50,HCT-116 [3],7.1 µM
COc1cc2c(cc1C)c1ccccc1n2CC(O)CN1CCN(C)CC1 (stereo not drawn),IC50,HepG2 [4],3.99 µM
same,IC50,SW480,3.99 µM
same,IC50,[5],3.99 µM
same,IC50,[6],3.99 µM
Cc1c2ccncc2c(C(=O)NCc2ccccc2)c2c1[nH]c1ccccc12,IC50,MCF7 [7],1.71 µM
same,IC50,HOP-62,1.71 µM
same,IC50,MDA-MB-231 [8],1.71 µM
same,IC50,OVCAR-3,1.71 µM
same,IC50,Hs-578T,1.71 µM
same,IC50,SNB-75,1.71 µM
same,IC50,SW-620,1.71 µM
same,IC50,UO-31,1.71 µM
same,IC50,786-0,1.71 µM
same,IC50,OVCAR-4,1.71 µM
CCn1c2ccccc2c2cc(NC(=O)c3c(N)n[nH]c3Nc3ccccc3)ccc21,IC50,HCT-116 [9],2.97 µM
same,IC50,MCF7 [10],2.97 µM
same,IC50,HepG2 [11],2.97 µM
same,IC50 at 48 h,[12],> 100 µM
CCCCn1c2ccc(Br)cc2c2cc(/C=N/NC(=O)c3ccncc3)ccc21,IC50,ASPC1,3.42 µM
same,IC50,SW1990,3.42 µM
CCN1CCN(CC(O)Cn2c3ccccc3c3cc(C)c(OC)cc32)CC1 (stereo not drawn),IC50,HepG2 [4],3.99 µM
same,IC50,SW480,3.99 µM
same,IC50,[5],3.99 µM
same,IC50,[6],3.99 µM
CCn1c2ccccc2c2cc(NC(=O)c3cc4cccc(OC)c4oc3=O)ccc21,IC50,HCT-116 [9],0.9 µM
same,IC50,MCF7 [10],0.9 µM
same,IC50,HepG2 [11],0.9 µM
same,IC50 at 48 h,[12],> 100 µM
Cc1c2ccncc2c(/C=C/C(C)NC=O)c2c1[nH]c1ccccc12 (stereo not drawn),IC50,MCF7 [7],1.25 µM
same,IC50,HOP-62,1.25 µM
same,IC50,MDA-MB-231 [8],1.25 µM
same,IC50,OVCAR-3,1.25 µM
same,IC50,Hs-578T,1.25 µM
same,IC50,SNB-75,1.25 µM
same,IC50,SW-620,1.25 µM
same,IC50,UO-31,1.25 µM
same,IC50,786-0,1.25 µM
same,IC50,OVCAR-4,1.25 µM
CCn1c2ccccc2c2cc(NC(=O)c3cc4cc(Br)cc(Br)c4oc3=O)ccc21,IC50,HCT-116 [9],0.9 µM
same,IC50,MCF7 [10],0.9 µM
same,IC50,HepG2 [11],0.9 µM
O=C(Cn1c2ccccc2c2ccccc21)NNC(c1ccc(O)cc1)N1CCNCC1 (stereo not drawn),GI50,MCF7 [7],< 10 µM
same,GI50,MDA-MB-231 [8],< 10 µM
CC1CCN(CC(O)Cn2c3ccc(Cl)cc3c3cc(Cl)ccc32)CC1 (stereo not drawn),IC50,A549 [1],7.1 µM
same,IC50,MDA-MB-231 [2],7.1 µM
same,IC50,HCT-116 [3],7.1 µM
COc1ccc2[nH]c3c(C)cc(-c4cc(-c5ccc(C(F)(F)F)cc5F)nc(N)n4)c(C)c3c2c1,IC50,MCF7 [13],0.1 µM
same,IC50,A549 [14],0.1 µM
same,IC50,COLO 205,0.1 µM
Oc1c(C(c2ccc(C(F)(F)F)cc2)N2CCCC2)ccc2[nH]c3ccccc3c12 (stereo not drawn),IC50,HeLa [15],5.4 µM
same,IC50,MDA-MB-231 [16],5.4 µM
O=[N+]([O-])c1coc(C2c3[nH]c4ccccc4c3C(c3cc([N+](=O)[O-])co3)c3[nH]c4ccccc4c32)c1 (stereo not drawn),IC50,[17],3.8 µM
same,IC50 at 24 h,[18],75.2 µM
same,IC50,MCF7 [19],5.24 µM
COc1cc(-c2cc(-c3ccc4c(c3)c3ccccc3n4-c3nc(-c4ccc(Cl)cc4)ns3)on2)cc(OC)c1OCc1cc(-c2ccncc2)no1,IC50,A549 [20],0.01 µM
CC1CCCCN1CC(O)Cn1c2ccc(Cl)cc2c2cc(Cl)ccc21 (stereo not drawn),IC50,A549 [1],7.1 µM
same,IC50,MDA-MB-231 [2],7.1 µM
same,IC50,HCT-116 [3],7.1 µM
COc1cc(-c2cc(COc3c(OC)cc(-c4cc(-c5ccc6c(c5)c5ccccc5n6-c5nc(-c6ccc(Cl)cc6)ns5)on4)cc3OC)on2)cc(OC)c1OC,IC50,A549 [20],0.021 µM
COc1cc(NC(=O)Nc2cc(C)c3[nH]c4ccc(Br)cc4c3c2C)cc(OC)c1OC,IC50,MCF7 [21],1.93 µM
same,IC50,MDA-MB-231 [22],1.93 µM
same,IC50,HeLa [23],1.93 µM
same,IC50,HepG2 [24],1.93 µM
O=C(CCCn1c2ccc(Br)cc2c2cc(Br)ccc21)NCCN1CCNCC1,GI50,MCF7 [7],8 µM
same,GI50,MDA-MB-231 [8],4.7 µM
